Reference: ChEMBL document CHEMBL5385847, “Design, synthesis and biological evaluation of a new class of 7H-pyrrolo[2,3-d]pyrimidine derivatives as Mps1 inhibitors for the treatment of breast cancer” (Eur J Med Chem, 2023)
The source made the active and inactive calls. The calls are words filed in the database; no cut-off is given here.

Tested on: 4T1
Assay: Induction of apoptosis in 4T1 cells assessed as late apoptotic cells at 5 uM incubated for 48 hrs by Annexin V-FITC/PI staining based flow cytometry (reference value: 1.73 %)
Format: functional, Mus musculus
Settings: not given

Row | SMILES | Activity [%]
1 | Cc1cc(N2CCOCC2)ccc1Nc1nc(NC2CCCCC2)c2nc[nH]c2n1 | 9.86

Tested on: 4T1-Luc
Assay: Antitumor activity against mouse 4T1-Luc cells xenografted in BALB/C mouse assessed as delay in tumor growth at 10 mg/kg, ip dosed once a week for 15 days
Format: functional, organism-based
Settings: time 15.0 day

Row | SMILES | Activity
2 | CC(=O)O[C@H]1C(=O)[C@@]2(C)[C@H]([C@H](OC(=O)c3ccccc3)[C@]3(O)C[C@H](OC(=O)[C@H](O)[C@@H](NC(=O)c4ccccc4)c4ccccc4)C(C)=C1C3(C)C)[C@]1(OC(C)=O)CO[C@@H]1C[C@@H]2O | Active

Tested on: 4T1
Assay: Induction of apoptosis in 4T1 cells assessed as early apoptotic cells at 5 uM incubated for 48 hrs by Annexin V-FITC/PI staining based flow cytometry (reference value: 0.32 %)
Format: functional, Mus musculus
Settings: not given

Row | SMILES | Activity [%]
3 | Cc1cc(N2CCOCC2)ccc1Nc1nc(NC2CCCCC2)c2nc[nH]c2n1 | 1.56

Tested on: MCF7
Assay: Induction of apoptosis in human MCF7 cells assessed as necrotic cells at 5 uM incubated for 48 hrs by Annexin V-FITC/PI staining based flow cytometry (reference value: 0.03 %)
Format: functional
Settings: not given

Row | SMILES | Activity [%]
4 | Cc1cc(N2CCOCC2)ccc1Nc1nc(NC2CCCCC2)c2nc[nH]c2n1 | 0.35

Tested on: MCF7
Assay: Induction of apoptosis in human MCF7 cells assessed as late apoptotic cells at 5 uM incubated for 48 hrs by Annexin V-FITC/PI staining based flow cytometry (reference value: 0.63 %)
Format: functional
Settings: not given

Row | SMILES | Activity [%]
5 | Cc1cc(N2CCOCC2)ccc1Nc1nc(NC2CCCCC2)c2nc[nH]c2n1 | 4.31

Tested on: 4T1
Assay: Induction of apoptosis in 4T1 cells assessed as necrotic cells at 5 uM incubated for 48 hrs by Annexin V-FITC/PI staining based flow cytometry (reference value: 0.20 %)
Format: functional, Mus musculus
Settings: not given

Row | SMILES | Activity [%]
6 | Cc1cc(N2CCOCC2)ccc1Nc1nc(NC2CCCCC2)c2nc[nH]c2n1 | 0.54

Tested on: MCF7
Assay: Induction of apoptosis in human MCF7 cells assessed as early apoptotic cells at 5 uM incubated for 48 hrs by Annexin V-FITC/PI staining based flow cytometry (reference value: 1.19 %)
Format: functional
Settings: not given

Row | SMILES | Activity [%]
7 | Cc1cc(N2CCOCC2)ccc1Nc1nc(NC2CCCCC2)c2nc[nH]c2n1 | 5.46

Target: T1, Dual specificity protein kinase TTK (Homo sapiens, UniProt P33981)
T1 sequence (P33981 whole entry): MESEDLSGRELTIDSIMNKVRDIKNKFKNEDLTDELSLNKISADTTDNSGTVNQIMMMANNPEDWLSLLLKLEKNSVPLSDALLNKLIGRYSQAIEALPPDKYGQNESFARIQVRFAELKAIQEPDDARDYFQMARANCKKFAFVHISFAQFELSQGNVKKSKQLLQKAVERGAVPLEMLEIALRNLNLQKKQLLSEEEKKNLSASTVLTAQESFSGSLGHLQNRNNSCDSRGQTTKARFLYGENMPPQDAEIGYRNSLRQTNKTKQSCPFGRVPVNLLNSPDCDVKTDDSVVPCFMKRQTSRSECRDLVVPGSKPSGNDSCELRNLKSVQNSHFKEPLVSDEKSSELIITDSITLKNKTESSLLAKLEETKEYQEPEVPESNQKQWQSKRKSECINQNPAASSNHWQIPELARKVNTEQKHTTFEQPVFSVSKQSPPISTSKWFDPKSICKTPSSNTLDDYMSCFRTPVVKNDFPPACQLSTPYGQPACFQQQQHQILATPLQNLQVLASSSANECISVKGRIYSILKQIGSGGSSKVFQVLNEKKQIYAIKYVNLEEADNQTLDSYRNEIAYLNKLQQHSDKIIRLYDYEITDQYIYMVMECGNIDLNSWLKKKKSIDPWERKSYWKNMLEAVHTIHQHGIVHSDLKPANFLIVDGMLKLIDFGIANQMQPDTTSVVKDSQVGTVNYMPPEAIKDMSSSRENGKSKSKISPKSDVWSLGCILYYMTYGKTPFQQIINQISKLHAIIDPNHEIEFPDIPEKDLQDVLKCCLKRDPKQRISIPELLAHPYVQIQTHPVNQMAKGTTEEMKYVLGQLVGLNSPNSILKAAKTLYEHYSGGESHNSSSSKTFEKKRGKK
Assay: Inhibition of Mps1 (unknown origin) incubated for 120 mins in presence of substrate/ATP by ADP-Glo assay
Settings: not given

Row | SMILES | IC50 [nM]
8 | CCc1ccccc1Nc1nc(-n2nc(N)c3ccccc32)c2cc[nH]c2n1 | 338
9 | c1ccc2c(c1)ccn2-c1nc(Nc2ccc(N3CCOCC3)cc2)nc2[nH]ccc12 | 144
10 | Nc1nn(-c2nc(Nc3ccccc3F)nc3[nH]ccc23)c2ccccc12 | 54
11 | Nc1nn(-c2nc(Nc3ccccc3OC(F)(F)F)nc3[nH]ccc23)c2ccccc12 | 154
12 | CN1CCN(c2ccc(Nc3nc(-n4ccc5ccccc54)c4cc[nH]c4n3)cc2)CC1 | 137
13 | c1cc2c(ccn2-c2nc(Nc3ccc(N4CCOCC4)cc3)nc3[nH]ccc23)cn1 | 464
14 | Nc1nn(-c2nc(Nc3ccccc3)nc3[nH]ccc23)c2ccccc12 | 106
15 | Nc1nn(-c2nc(Nc3ccccc3Cl)nc3[nH]ccc23)c2ccccc12 | 68
16 | COc1cc(N2CCOCC2)ccc1Nc1nc(-n2ccc3cnccc32)c2cc[nH]c2n1 | 154
17 | CN1CCN(c2ccc(Nc3nc(-n4cnc5ccccc54)c4cc[nH]c4n3)cc2)CC1 | 83
18 | CN1CCN(c2ccc(Nc3nc(-n4ccc5cnccc54)c4cc[nH]c4n3)cc2)CC1 | 149
19 | COc1cc(N2CCOCC2)ccc1Nc1nc(-n2ccc3ccccc32)c2cc[nH]c2n1 | 132
20 | CN1CCN(c2ccc(Nc3nc(-c4cnn(C)c4)c4cc[nH]c4n3)cc2)CC1 | 67

Now from value to molecule:

Row | IC50 [nM] | SMILES
21 | 34 | COc1cc(N2CCOCC2)ccc1Nc1nc(-c2cnn(C)c2)c2cc[nH]c2n1
22 | 47 | c1ccc2c(c1)ncn2-c1nc(Nc2ccc(N3CCOCC3)cc2)nc2[nH]ccc12
23 | 40 | COc1cc(N2CCOCC2)ccc1Nc1nc(-n2cnc3ccccc32)c2cc[nH]c2n1
24 | 49 | Cn1cc(-c2nc(Nc3ccc(N4CCOCC4)cc3)nc3[nH]ccc23)cn1
25 | 41 | Cc1cc(N2CCN(C)CC2)ccc1Nc1nc(-n2nc(N)c3ccccc32)c2cc[nH]c2n1
26 | 50 | CN1CCN(c2ccc(Nc3nc(-n4nc(N)c5ccccc54)c4cc[nH]c4n3)cc2Cl)CC1
27 | 32 | CCN1CCN(c2ccc(Nc3nc(-n4nc(N)c5ccccc54)c4cc[nH]c4n3)cc2)CC1
28 | 35 | CN1CCN(c2ccc(Nc3nc(-n4nc(N)c5ccccc54)c4cc[nH]c4n3)cc2F)CC1
29 | 51 | COc1ccccc1Nc1nc(-n2nc(N)c3ccccc32)c2cc[nH]c2n1
30 | 33 | COc1cc(N2CCOCC2)ccc1Nc1nc(-n2nc(N)c3ccccc32)c2cc[nH]c2n1
31 | 49 | Nc1nn(-c2nc(Nc3ccc(N4CCOCC4)cc3)nc3[nH]ccc23)c2ccccc12
